The compounds below were run against T1, CXCR3 (Homo sapiens, UniProt P49682) (assay: CXCR3/IP-10 radioligand binding assay (125I-IP-10 competition on CXCR3.L1/2 cell membranes)). Conditions: test compound 10 μmol/L; 125I-labeled IP-10 0.05 to 0.2 nmol/L; CXCR3.L1/2 transfectant cell membranes; 60 min at room temperature.
T1 construct: expressed in transfected cells; membrane preparation
T1 sequence (P49682 1-368): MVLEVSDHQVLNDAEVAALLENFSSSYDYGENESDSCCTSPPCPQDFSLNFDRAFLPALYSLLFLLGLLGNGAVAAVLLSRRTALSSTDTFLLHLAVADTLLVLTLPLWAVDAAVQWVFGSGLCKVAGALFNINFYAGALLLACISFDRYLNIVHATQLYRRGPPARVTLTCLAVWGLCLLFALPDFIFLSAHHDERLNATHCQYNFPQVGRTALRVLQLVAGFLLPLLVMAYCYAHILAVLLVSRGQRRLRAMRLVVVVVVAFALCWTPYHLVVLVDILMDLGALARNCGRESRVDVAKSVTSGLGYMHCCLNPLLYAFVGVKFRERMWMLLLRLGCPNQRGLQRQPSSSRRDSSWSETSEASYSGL
Text: The activity of the compounds of the present invention can be assessed using a suitable assay, such as a receptor binding assay, a chemotaxis assays, an extracellular acidification assay or a calcium flux assay (see, for example, Hesselgesser et al., J. Biol. Chem. 273(25):15687-15692 (1998) and WO 98/02151). For example, as described herein, small organic molecule antagonists of CXCR3/IP-10 binding have been identified utilizing cells engineered to express recombinant human CXCR3 (CXCR3.L1/2) and which bind ^125I-IP10 and chemotax in response to IP-10, Mig or I-TAC. Specifically, a high through-put receptor binding assay, which monitors ^125I-IP10 binding to CXCR3.L1/2 cell membranes, was used to identify small molecule antagonists which block binding of IP-10, Mig or I-TAC to CXCR3.
CXCR3.L1/2 cells were pelleted by centrifugation and stored at −80° C.. The cells were lysed by thawing and resuspending at about 1.5×10^7 cells/ml in a hypotonic buffer (5 mmol/L HEPES (pH 7.2), 2 mmol/L EDTA, 10 μg/ml each leupeptin, aprotinin, and chymostatin, and 100 μg/ml PMSF (all from Sigma, St. Louis)). Nuclei and cellular debris was removed by centrifugation ([…], at 4° C.) for 10 min. The supernatant was transferred to chilled centrifuge tubes (Nalge, Rochester, N.Y.) and the membrane fraction was recovered by centrifugation (25,000 g at 4° C.) for 45 min. The membrane pellet was resuspended in freezing buffer (10 mM HEPES (pH 7.2), 300 mmol/L Sucrose, 5 μg/ml each of leupeptin, aprotinin, and chymostatin, and 10 μg/ml PMSF). The total protein concentration was determined using a coomassie blue staining protein concentration assay kit (BioRad). The membrane preparation was aliquoted and stored at −80° C. until time of use.
CXCR3/IP-10 binding was performed in 96-well polypropylene plates (Costar) in a final volume of 0.1 ml of HBB buffer (50 mmol/L Hepes pH 7.4, 1 mmol/L CaCl2, 5 mmol/L MgCl2, 0.02% sodium azide, 0.5% BSA (bovine serum albumin)) containing 1 to 5 μg of CXCR3.L1/2 transfectant cell membrane protein and 0.05 to 0.2 nmol/L ^125I-labeled IP-10 (NEN, Boston, Mass.). Competition binding experiments were performed by including variable concentrations of unlabeled IP-10 or test compound. Nonspecific binding was determined following the addition of a 250 nmol/L unlabelled IP-10. Samples were incubated for 60 min at room temperature, and bound and free tracer (^125I-IP10) were separated by filtration through 96-well GF/B filterplates (Packard) presoaked in 0.3% polyethyleneimine. The filters were washed in HBB further supplemented with 0.5 mol/L NaCl, dried, and the amount of bound radioactivity determined by liquid scintillation counting. The competition is presented as the percent specific binding as calculated by 100×[(S−B)/(T−B)], where S is the radioactivity bound for each sample, B is background binding, and T is total bound in the absence of competitors. Duplicates were used throughout the experiments.

Compound | % inhibition at 10 μmol/L [%]
N#CC(C#N)=C1N(CCSCc2ccc(CN3CCCCC3)cc2)CCN1Cc1cccc2ccccc12 [Compound 2, 1-{2-(4-Piperidinomethylbenzylthio)ethyl}-3-(1-naphthylmethyl)-2-imidazolidinylidenepropanedinitrile] | 94
N#CC(C#N)=C1N(CCSCc2cccc(CN3CCCCC3)c2)CCN1Cc1cccc2ccccc12 [Compound 1, 1-{2-(3-Piperidinomethylbenzylthio)ethyl}-3-(1-naphthylmethyl)-2-imidazolidinylidenepropanedinitrile] | 108
1-{2-(3-Piperidinomethylbenzylthio)ethyl}-3-(1-acenaphthenyl)-2imidazolidinylidenepropanedinitrile [Compound 4] | 95
Cc1cccc(CN2CCN(CCSCc3cccc(CN4CCCCC4)c3)C2=C(C#N)C#N)c1C [Compound 3, 1-{2-(3-Piperidinomethylbenzylthio)ethyl}-3-(2,3-dimethylbenzyl)-2-imidazolidinylidenepropanedinitrile] | 91
1-{2-(3-Piperidinomethylbenzylthio)ethyl}-3-(1-naphthoyl)-2-imidazolidinylidenepropanedinitrile [Compound 7] | 93
1-{2-(3-Piperidinomethylbenzylthio)ethyl}-3-{1-(8-methylnaphthyl)methyl}-2-imidazolidinylidenepropanedinitrile [Compound 11] | 96
1-{2-(3-Piperidinomethylbenzylthio)ethyl}-3-(2,3-methylenedioxybenzyl)-2-imidazolidinylidenepropanedinitrile [Compound 6] | 84
N#CC(C#N)=C1N(CCCc2ccccc2)CCN1CCSCc1cccc(CN2CCCCC2)c1 [Compound 10, 1-{2-(3-Piperidinomethylbenzylthio)ethyl}-3-(3-phenylpropyl)-2-imidazolidinylidenepropanedinitrile] | 86

Source: patent US6495569B1, “Imidazolidine compounds” (Millennium Pharmaceuticals, Inc., priority 2001, dated 2002)
